Measured values from ChEMBL document CHEMBL5230114, “Current development of CFTR potentiators in the last decade” (Eur J Med Chem, 2020).
pEC50: −log10 of the molar value.

Columns and labels:
[1] = system: Cystic fibrosis transmembrane conductance regulator (Homo sapiens), P13569 [F508del]; test: Potentiation of CD4-HRP tagged CFTR F508del mutant NBD1 (unknown origin) expressed in MDCK cells assessed as increase in chloride current by measuring fold increase in luminescence signal incubated for 24 hrs relative to control; type: cell-based; conditions: filed as activator
Sequence of Cystic fibrosis transmembrane conductance regulator (Homo sapiens), P13569 [F508del] (P13569 as listed by the source): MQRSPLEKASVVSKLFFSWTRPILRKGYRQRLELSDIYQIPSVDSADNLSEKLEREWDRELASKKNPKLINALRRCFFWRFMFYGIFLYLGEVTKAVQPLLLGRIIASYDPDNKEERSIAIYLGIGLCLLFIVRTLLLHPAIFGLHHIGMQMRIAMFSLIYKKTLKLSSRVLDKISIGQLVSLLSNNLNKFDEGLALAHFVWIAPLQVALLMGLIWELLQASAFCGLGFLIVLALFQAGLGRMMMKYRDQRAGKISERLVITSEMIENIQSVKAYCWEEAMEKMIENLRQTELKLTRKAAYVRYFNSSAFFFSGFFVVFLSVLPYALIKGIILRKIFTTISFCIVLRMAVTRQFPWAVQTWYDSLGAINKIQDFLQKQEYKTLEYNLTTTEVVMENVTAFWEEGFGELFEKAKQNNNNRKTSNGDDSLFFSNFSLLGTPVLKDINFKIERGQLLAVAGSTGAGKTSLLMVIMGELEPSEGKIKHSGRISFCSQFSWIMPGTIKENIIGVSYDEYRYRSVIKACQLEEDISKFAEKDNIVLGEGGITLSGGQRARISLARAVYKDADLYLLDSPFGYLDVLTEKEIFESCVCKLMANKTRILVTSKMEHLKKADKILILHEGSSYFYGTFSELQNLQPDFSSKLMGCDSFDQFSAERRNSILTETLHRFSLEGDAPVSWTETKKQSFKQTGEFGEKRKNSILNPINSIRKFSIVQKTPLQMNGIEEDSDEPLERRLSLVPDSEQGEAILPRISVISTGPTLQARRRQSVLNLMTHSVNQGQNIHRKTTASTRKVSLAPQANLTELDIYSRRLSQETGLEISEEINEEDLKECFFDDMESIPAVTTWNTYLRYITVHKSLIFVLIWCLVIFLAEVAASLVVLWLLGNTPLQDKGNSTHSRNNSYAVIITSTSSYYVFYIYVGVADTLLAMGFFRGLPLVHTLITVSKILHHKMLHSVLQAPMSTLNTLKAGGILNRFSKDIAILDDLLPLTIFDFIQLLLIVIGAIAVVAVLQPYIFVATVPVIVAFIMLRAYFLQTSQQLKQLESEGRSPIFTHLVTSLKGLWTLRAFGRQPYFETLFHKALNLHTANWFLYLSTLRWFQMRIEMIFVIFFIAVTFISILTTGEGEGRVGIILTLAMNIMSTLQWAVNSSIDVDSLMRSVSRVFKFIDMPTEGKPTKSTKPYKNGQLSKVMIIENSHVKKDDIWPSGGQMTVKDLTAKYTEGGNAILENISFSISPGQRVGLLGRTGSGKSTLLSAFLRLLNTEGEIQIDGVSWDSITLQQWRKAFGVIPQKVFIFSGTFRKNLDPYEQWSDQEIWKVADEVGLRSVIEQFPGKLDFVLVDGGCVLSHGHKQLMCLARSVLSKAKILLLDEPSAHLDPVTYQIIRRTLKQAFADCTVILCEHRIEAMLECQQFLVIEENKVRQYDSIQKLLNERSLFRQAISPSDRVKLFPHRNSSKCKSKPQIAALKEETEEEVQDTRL

[2] = target: Cystic fibrosis transmembrane conductance regulator (Homo sapiens, UniProt P13569, W1282X); test: Potentiation of CFTR W1282X mutant (unknown origin) expressed in rat FRT cells; type: cell-based
[3] = system: Cystic fibrosis transmembrane conductance regulator (Homo sapiens), P13569 [F508del]; test: Potentiation of CFTR F508del mutant (unknown origin) expressed in rat FRT cells assessed as increase in chloride current by measuring maximal effect at 30 uM in presence of forskolin relative to control; type: cell-based; conditions: filed as activator
[4] = target: Cystic fibrosis transmembrane conductance regulator (Rattus norvegicus, UniProt P34158, F508DEL); test: Potentiation of CFTR F508del mutant in rat FRT cells assessed as increase in iodide influx in presence of forskolin; type: cell-based
Sequence of Cystic fibrosis transmembrane conductance regulator (Rattus norvegicus, UniProt P34158, F508DEL) (P34158 whole entry F508del, looked up): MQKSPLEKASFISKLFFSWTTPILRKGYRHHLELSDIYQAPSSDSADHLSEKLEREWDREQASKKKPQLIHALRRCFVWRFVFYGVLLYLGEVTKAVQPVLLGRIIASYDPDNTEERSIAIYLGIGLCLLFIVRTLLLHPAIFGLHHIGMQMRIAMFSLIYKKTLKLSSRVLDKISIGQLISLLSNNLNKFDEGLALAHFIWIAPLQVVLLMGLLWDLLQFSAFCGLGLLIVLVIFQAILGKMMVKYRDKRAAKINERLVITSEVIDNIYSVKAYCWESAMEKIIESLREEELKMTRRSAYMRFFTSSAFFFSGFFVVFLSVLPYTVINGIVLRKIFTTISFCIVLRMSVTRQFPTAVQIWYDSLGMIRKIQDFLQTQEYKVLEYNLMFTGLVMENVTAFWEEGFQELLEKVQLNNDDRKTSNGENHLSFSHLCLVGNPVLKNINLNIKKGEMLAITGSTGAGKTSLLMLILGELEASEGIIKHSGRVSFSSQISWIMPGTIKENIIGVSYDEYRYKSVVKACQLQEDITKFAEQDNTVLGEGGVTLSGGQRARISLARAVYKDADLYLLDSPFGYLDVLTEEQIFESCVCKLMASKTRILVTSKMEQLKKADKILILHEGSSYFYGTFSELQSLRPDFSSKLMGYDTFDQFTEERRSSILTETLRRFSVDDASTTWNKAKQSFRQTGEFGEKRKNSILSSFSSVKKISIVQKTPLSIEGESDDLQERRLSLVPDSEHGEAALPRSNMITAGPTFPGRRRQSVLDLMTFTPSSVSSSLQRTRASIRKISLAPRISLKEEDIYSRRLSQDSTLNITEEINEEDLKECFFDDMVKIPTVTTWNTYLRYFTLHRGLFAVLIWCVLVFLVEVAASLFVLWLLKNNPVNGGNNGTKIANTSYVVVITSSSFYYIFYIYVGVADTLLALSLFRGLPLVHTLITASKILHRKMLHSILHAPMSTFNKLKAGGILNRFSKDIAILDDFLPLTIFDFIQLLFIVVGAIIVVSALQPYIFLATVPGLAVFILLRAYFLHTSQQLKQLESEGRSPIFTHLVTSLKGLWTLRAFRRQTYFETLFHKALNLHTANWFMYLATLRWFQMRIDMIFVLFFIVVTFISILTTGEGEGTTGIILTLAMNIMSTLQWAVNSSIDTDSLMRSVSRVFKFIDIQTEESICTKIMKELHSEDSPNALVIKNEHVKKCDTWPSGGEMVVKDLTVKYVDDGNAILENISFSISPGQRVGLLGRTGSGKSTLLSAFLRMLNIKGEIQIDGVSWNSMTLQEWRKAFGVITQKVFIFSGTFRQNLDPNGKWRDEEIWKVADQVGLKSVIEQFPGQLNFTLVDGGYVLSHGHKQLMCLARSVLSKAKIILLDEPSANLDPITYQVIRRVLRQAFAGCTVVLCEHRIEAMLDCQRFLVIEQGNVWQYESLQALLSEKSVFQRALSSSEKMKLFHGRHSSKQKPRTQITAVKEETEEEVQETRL

[5] = system: Cystic fibrosis transmembrane conductance regulator (Rattus norvegicus), P34158 [UNDEFINED MUTATION]; test: Potency index, ratio of genistein EC50 to test compound EC50 for potentiation of CFTR F508del mutant in rat FRT cells assessed as increase in iodide influx in presence of forskolin; type: cell-based
Sequence of Cystic fibrosis transmembrane conductance regulator (Rattus norvegicus), P34158 [UNDEFINED MUTATION] (P34158 whole entry, looked up, stated change not applied): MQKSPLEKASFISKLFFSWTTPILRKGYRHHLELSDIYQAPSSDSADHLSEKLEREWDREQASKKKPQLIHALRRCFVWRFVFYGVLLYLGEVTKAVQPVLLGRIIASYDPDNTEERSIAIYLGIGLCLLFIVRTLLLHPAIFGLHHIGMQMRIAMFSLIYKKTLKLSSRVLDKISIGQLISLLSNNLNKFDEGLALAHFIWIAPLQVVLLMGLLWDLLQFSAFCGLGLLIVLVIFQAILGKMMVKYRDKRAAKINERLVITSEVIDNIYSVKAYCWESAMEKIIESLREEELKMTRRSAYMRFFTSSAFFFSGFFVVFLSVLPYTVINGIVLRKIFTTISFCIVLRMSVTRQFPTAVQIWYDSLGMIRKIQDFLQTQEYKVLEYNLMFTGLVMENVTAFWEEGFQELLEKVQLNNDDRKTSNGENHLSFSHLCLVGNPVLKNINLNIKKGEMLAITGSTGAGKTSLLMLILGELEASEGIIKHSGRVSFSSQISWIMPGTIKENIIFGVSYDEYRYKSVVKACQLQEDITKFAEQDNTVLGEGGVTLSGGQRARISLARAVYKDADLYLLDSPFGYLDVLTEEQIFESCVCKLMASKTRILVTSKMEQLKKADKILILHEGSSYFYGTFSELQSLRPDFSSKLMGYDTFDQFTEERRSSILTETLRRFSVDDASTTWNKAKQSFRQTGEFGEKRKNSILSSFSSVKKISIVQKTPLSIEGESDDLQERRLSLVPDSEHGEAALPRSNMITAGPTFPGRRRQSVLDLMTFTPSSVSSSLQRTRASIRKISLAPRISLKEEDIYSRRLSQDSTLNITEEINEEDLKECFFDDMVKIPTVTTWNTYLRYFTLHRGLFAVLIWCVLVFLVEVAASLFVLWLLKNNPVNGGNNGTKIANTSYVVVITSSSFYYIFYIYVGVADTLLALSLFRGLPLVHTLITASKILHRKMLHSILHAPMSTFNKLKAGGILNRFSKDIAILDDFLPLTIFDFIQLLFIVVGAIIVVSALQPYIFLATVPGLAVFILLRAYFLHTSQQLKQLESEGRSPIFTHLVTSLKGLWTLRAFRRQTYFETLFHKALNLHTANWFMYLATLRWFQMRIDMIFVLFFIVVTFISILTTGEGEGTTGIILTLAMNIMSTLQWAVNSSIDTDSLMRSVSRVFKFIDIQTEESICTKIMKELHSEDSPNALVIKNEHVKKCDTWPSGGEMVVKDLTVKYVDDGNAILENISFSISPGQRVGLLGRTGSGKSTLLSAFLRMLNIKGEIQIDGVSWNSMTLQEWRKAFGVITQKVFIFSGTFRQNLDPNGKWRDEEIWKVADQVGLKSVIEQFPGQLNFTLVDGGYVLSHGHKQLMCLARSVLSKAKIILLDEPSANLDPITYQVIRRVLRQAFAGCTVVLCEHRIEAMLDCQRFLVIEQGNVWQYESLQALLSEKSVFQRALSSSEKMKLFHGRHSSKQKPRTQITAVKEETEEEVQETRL

[6] = target: Cystic fibrosis transmembrane conductance regulator (Homo sapiens, UniProt P13569, F508DEL); test: Potentiation of CFTR F508del mutant activity (unknown origin)
Sequence of Cystic fibrosis transmembrane conductance regulator (Homo sapiens, UniProt P13569, F508DEL) (P13569 as listed by the source): as the sequence (P13569 as listed by the source) above

COc1c(C(=O)NCc2ccc(F)cc2Cl)sc2ccccc12
fold change (FC) [1]: 2

COc1cc(CNC(=O)c2sc3ccccc3c2OC)cc(OC)c1
fold change (FC) [1]: 1.7

CCc1ccc(NS(=O)(=O)c2cn(Cc3ccccc3C#N)c3ncccc23)cc1
pEC50 [2]: 6.15

COc1ccc(CNC(=O)c2sc3ccc(Cl)cc3c2OC)c(OC)c1
Activity [3]: 50%

CCCCCn1cc(S(=O)(=O)Nc2ccc(CC)cc2)c2cccnc21
pEC50 [2]: 6.00

COc1c(C(=O)NCc2ccccc2Br)sc2ccccc12
fold change (FC) [1]: 2.4

CC(C)c1ccc(NC(=O)C(c2ccccc2)N(C)C(=O)Cc2c[nH]c3ccccc23)cc1 (stereo unspecified)
pEC50 [4]: 7.15 | Ratio EC50 [5]: 100

CCc1ccc(NS(=O)(=O)c2cn(Cc3ccccn3)c3ncccc23)cc1
pEC50 [2]: 6.22

CN(C(=O)Cc1c[nH]c2ccccc12)[C@H](C(=O)Nc1ccc(F)cc1)c1ccccc1
pEC50 [6]: 7.05

CN(C(=O)Cc1c[nH]c2ccccc12)[C@H](C(=O)Nc1ccc(-n2cc(CCCF)nn2)cc1)c1ccccc1
pEC50 [6]: 5.96
